Common to all, as to assay type: cell-based
Assay [1] has as its system mouse Kras; p16p19null rhabdomyosarcoma cell line. Description: In vitro growth assay (MTT) in mouse Kras; p16p19null rhabdomyosarcoma cell line. To be noted: 48 hours. From the text: (§1) FIG. 8: In vitro screening of candidate targets. Sarcoma cells were exposed to increasing concentrations of Torin (10, 50, 250 nMol), Rapamycin (10, 50, 100 nMol), RL0061425 (10, 50, 100, 500, 1000 nMol), SB525334 (1, 10, 50, 100, 500 nMol), SD208 (10, 50, 100, 500, 1000 nMol), and Ethanol and DMSO (as a control).
(§2) To begin to evaluate the effects of candidate target genes in sarcoma cells, we have established in vitro assays in which the proliferation of sarcoma cell lines exposed to selected chemical compounds is measured by MTT (3-(4,5-Dimethylthiazol-2-yl)-2,5-diphenyltretrazolium bromide) assay at defined time points. All experiments are carried out in low-passage cell lines established from modeled Kras rhabdomyosarcomas of satellite cell origin. For comparison, we also studied the effects of these compounds in the human embryonal rhabdomyosarcoma cell line RD. In these studies, we focused first on a small set of readily available chemical compounds (obtained from D. Guertin and L. Rubin at the University of Massachusetts and the Harvard Stem Cell Institute, respectively), whose targets include the TGFβ and mammalian target of rapamycin (mTOR) signaling pathways. As discussed above, the TGFβ pathway was implicated in sarcoma pathogenesis by our prior bioinformatics analyses. mTOR was tested as well because Ras pathway activation has been reported to promote mTOR signaling (Carriere, A., Romeo, Y., Acosta-Jaquez, H. A., Moreau, J., Bonneil, E., Thibault, P. Fingar, D. C., Roux, P. P., ERK1/2 Phosphorylate Raptor to Promote Ras-dependent Activation of mTOR Complex 1 (mTORC1). J Biol Chem 286 (1), 567 (2011)), and many genes on our list appear to interact with this signaling pathway (data not shown). Finally, gene ontology analyses of the 146 sarcoma-associated genes discussed above identified 61 genes that function in cell growth and proliferation (i.e., key cellular activities often regulated by mTOR).
(§3) Cell lines from the modeled sarcomas were exposed to graded concentrations of mTOR inhibitors (Rapamycin, Torin) or TGF inhibitors (RL0061425, SB525334, SD208). […]

In assay [2] the test system is mouse Kras; p16p19null sarcoma line. Description: In vitro growth assay (MTT) in mouse Kras; p16p19null sarcoma line. To be noted: 96 hours.
Source text: as §1, §2, §3

For assay [3], the system named is human rhabdomyosarcoma cell line RD. Description: In vitro growth assay (MTT) in human rhabdomyosarcoma cell line RD. Particulars: 96 hours.
Source text: as §1
To begin to evaluate the effects of candidate target genes in sarcoma cells, we have established in vitro assays in which the proliferation of sarcoma cell lines exposed to selected chemical compounds is measured by MTT (3-(4,5-Dimethylthiazol-2-yl)-2,5-diphenyltretrazolium bromide) assay at defined time points. All experiments are carried out in low-passage cell lines established from modeled Kras rhabdomyosarcomas of satellite cell origin. For comparison, we also studied the effects of these compounds in the human embryonal rhabdomyosarcoma cell line RD. In these studies, we focused first on a small set of readily available chemical compounds (obtained from D. Guertin and L. Rubin at the University of Massachusetts and the Harvard Stem Cell Institute, respectively), whose targets include the TGFβ and mammalian target of rapamycin (mTOR) signaling pathways. […]

Setting [4] is: tested at 10, 50, 100, 500, 1000 nMol.

Where only a bound is given, the exact number is not on record here.

As to Torin, the “cell growth (fold-increase in MTT-uptake)” value in assay [1] (250 nMol), in assay [2] (250 nMol) and in assay [3] (250 nMol) was “reduced the growth” each time.
On to `Cc1cccc(-c2[nH]c(C(C)(C)C)nc2-c2ccc3nccnc3c2)n1` [SB525334], for which the “cell growth (fold-increase in MTT-uptake)” value is given as “no major effect” in assay [1] (1, 10, 50, 100, 500 nMol); “no major effect” in assay [2] (1, 10, 50, 100, 500 nMol); “no major effect” in assay [3] (1, 10, 50, 100, 500 nMol).
Regarding `Fc1ccc(Cl)cc1-c1nc(Nc2ccncc2)c2nccnc2n1` [SD208], the “concentration at which growth was inhibited (MTT-uptake)” value in assay [1] (setting [4]) and in assay [2] (setting [4]) was at least 500 nmol in each case.

The record behind these values is patent US20150250826A1, “ISOLATION AND CHARACTERIZATION OF MUSCLE REGENERATING CELLS” (Joslin Diabetes Center, Inc., priority 2012, published 2015).
